Here are results for 20 molecules from patent US20230286968A1, “ARYLOXAZOLO SPIRAL RING DERIVATIVES FOR THE TREATMENT AND PROPHYLAXIS OF HEPATITIS B VIRUS INFECTION” (Hoffmann-La Roche Inc., priority 2020, published 2023).

A word on the IC50: it is the concentration at which inhibition is half-maximal. In general, CC50 refers to the concentration that lowers cell viability or growth by half. Lower therefore signals harm at low concentration.

A value given as a limit tells only on which side of the number the result lay.

In data set [1] the test system is HBeAg. As to the kind of experiment: PHH natural infection assay, HBeAg (alphalisa). The settings on record: Hepatitis B virus, Hepatocyte, read-out: HBeAg IC50, HBV-infected primary human hepatocytes, supernatant, alphalisa. The class given is cell-based, HBV. As to the method: (§1) Detailed procedures regarding primary human hepatocyte (PHH) HBV natural infection assay are described as below. One tube of frozen PHH (10 million cells) is thawed in 37° C. water bath and then transferred to 20 mL of PHH thawing medium (Sigma, InVitroGRO HT Medium, Cat. S03319) with gently mixing. The cells were then centrifuged at […] for 5 min, the supernatant was discarded and the tube was refilled with 25 mL of PHH plating medium (Sigma, InVitroGRO CP Medium, Cat. S03317). The tube was shaken very gently to re-suspend all cells, and then 50 μL of cells were transferred to each well 384-well collagen I coated plate with appropriate liquid handling equipment, e.g. Integra VIAFLO384 or Agilent Bravo. The cells were then cultured for 24 hours in a cell incubator. For HBV infection, after PHH attachment on the culture plate, the plating medium was removed and replenished with PHH culture medium containing HBV virus. The PHH culture medium was prepared with Dulbecco's Modified Eagle Medium (DMEM)/F12 (1:1 in volume ratio) containing 10% fetal bovine serum (Gibco, Cat. 10099141), 5 ng/mL human epidermal growth factor (Gibco, Cat.PHG0311L), 20 ng/mL dexamethasone (Sigma, Cat.D4902-100 mg), 250 ng/mL human recombinant insulin (Gibco, Cat.41400045) and 100 U/mL penicillin. HBV virus at 200 genome equivalent (GE) per cell with 4% PEG8000 (Sigma, Cat.P1458) containing culture medium were added to the PHH culture medium for infection. The cells were then cultured for 24 hours in cell incubator. Then the cell culture supernatant was removed. The HBV-infected PHH were cultured with sandwich culture method with PHH culture medium containing […] and 0.25 mg/mL matrix gel for 72 hours. The supernatant was then refreshed with PHH culture medium containing different concentrations of testing compounds for two times with 72-hour interval. At the end of treatment, the supernatant was collected for viral markers measurements, including HBsAg, HBeAg, HBV DNA and cytotoxicity. HBsAg and HBeAg were detected using alphalisa method using their specific antibodies. For HBV DNA detection, HBV DNA Quantitative Fluorescence Diagnostic Kit (Sansure Biotech Inc.) was used following the manufacture's protocol. Cytotoxicity was determined using Cell Counting Kit-8 (CCK8, Dojindo Molecular Technologies, Inc.).
(§2) The compounds of the present invention were tested for their capacity to inhibit HBsAg and HBeAg as described herein.

Data set [2] in a line: Cytotoxicity in PHH natural infection assay (Cell Counting Kit-8). In kind it is cell-based. Conditions: HBV-infected primary human hepatocytes, CCK8. On the procedure:
as §1
A general note: Tetrazolium assays rely on reduction of a dye to a coloured formazan, in cell work by metabolically active cells.

Data set [3] has as its system HBsAg. As to the kind of experiment: PHH natural infection assay, HBsAg (alphalisa). The settings on record: Hepatitis B virus, Hepatocyte, read-out: HBsAg IC50, HBV-infected primary human hepatocytes, supernatant, alphalisa. The class given is cell-based, HBV. As to the method:
as §1, §2
In general terms: Alpha assays give light when donor and acceptor beads are brought close together.

Consider `O=C(NC1CC2(C1)CC(c1nc3cc(Cl)ccc3o1)C2)c1ccnc(S(=O)(=O)C2COC2)c1` (stereo not drawn) [Example 25, N-[6-(5-chloro-1,3-benzoxazol-2-yl)spiro[3.3]heptan-2-yl]-2-(oxetan-3-ylsulfonyl)pyridine-4-carboxamide], for which the IC50 was 2.53 µM in data set [1] and 4.18 µM in data set [3]. In data set [2], this molecule showed a CC50 at 144 h greater than 10 µM.
Taken in the same sequence, the figures for `O=C(CC1CS(=O)(=O)C1)NC1CC2(C1)CC(c1nc3cc(Cl)ccc3o1)C2` (stereo not drawn) [Example 50, N-[6-(5-chloro-1,3-benzoxazol-2-yl)spiro[3.3]heptan-2-yl]-2-(1,1-dioxothietan-3-yl)acetamide] were 1.36 µM, 1.96 µM and greater than 100 µM.
Turning to `O=C(NCC1CCOC1)NC1CC2(C1)CC(c1nc3cc(Cl)ccc3o1)C2` (stereo not drawn) [Example 63, 1-[6-(5-chloro-1,3-benzoxazol-2-yl)spiro[3.3]heptan-2-yl]-3-(tetrahydrofuran-3-ylmethyl)urea], the IC50 in data set [1] was 5.3 µM; in data set [3] it was 8.02 µM. The CC50 at 144 h in data set [2] was greater than 100 µM.
On to `CN1CCC(C(=O)NC2CC3(C2)CC(c2nc4cc(Cl)ccc4o2)C3)CC1=O` (stereo not drawn) [Example 34, N-[6-(5-chloro-1,3-benzoxazol-2-yl)spiro[3.3]heptan-2-yl]-1-methyl-2-oxo-piperidine-4-carboxamide], for which the IC50 in data set [1] turned out to be 4.42 µM; in data set [3], 8.69 µM. In data set [2], this molecule had a cytotoxic concentration (CC50) at 144 h greater than 100 µM.
Consider `CCN(C)C(=O)NC1CC2(C1)CC(c1nc3cc(Cl)ccc3o1)C2` (stereo not drawn) [Example 62, 3-[6-(5-chloro-1,3-benzoxazol-2-yl)spiro[3.3]heptan-2-yl]-1-ethyl-1-methyl-urea], for which the results for the IC50 in data set [1] and in data set [3] were 2.12 µM and 3.23 µM, respectively. The same molecule came in with a half-maximal cytotoxic concentration (CC50) at 144 h in data set [2] greater than 100 µM.
Taken in the same sequence, the figures for `Cc1cc(C(=O)NC2CC3(C2)CC(c2nc4cc(Cl)ccc4o2)C3)ccn1` (stereo not drawn) [Example 4, N-[6-(5-chloro-1,3-benzoxazol-2-yl)spiro[3.3]heptan-2-yl]-2-methyl-pyridine-4-carboxamide] were 4.59 µM, 5.51 µM and greater than 10 µM.
Consider `O=C(NC1CC2(C1)CC(c1nc3cc(Cl)ccc3o1)C2)C1CCN(C(=O)C2CCC2)C1` (stereo not drawn) [Example 75, N-[6-(5-chloro-1,3-benzoxazol-2-yl)spiro[3.3]heptan-2-yl]-1-(cyclobutanecarbonyl)pyrrolidine-3-carboxamide], for which the IC50 in data set [1] was determined as 8.96 µM; in data set [3], 9.58 µM. In data set [2], the CC50 at 144 h is greater than 10 µM.
The matching figures for `O=C(NC1CC2(C1)CC(c1nc3cc(Cl)cnc3o1)C2)c1ccnc(S(=O)(=O)C2CC2)c1` (stereo not drawn) [Example 85, N-[6-(6-chlorooxazolo[5,4-b]pyridin-2-yl)spiro[3.3]heptan-2-yl]-2-cyclopropylsulfonyl-pyridine-4-carboxamide]: 0.73 µM, 0.81 µM and greater than 10 µM.
Regarding `Cc1ccc(S(=O)(=O)N2CCC(CC(=O)NC3CC4(C3)CC(c3nc5cc(Cl)ccc5o3)C4)C2)cc1` (stereo not drawn) [Example 76, N-[6-(5-chloro-1,3-benzoxazol-2-yl)spiro[3.3]heptan-2-yl]-2-[1-(p-tolylsulfonyl)pyrrolidin-3-yl]acetamide], the IC50 in data set [1] is 4 µM; in data set [3] it was 2.89 µM. The molecule further registered a CC50 at 144 h in data set [2] greater than 10 µM.
As for `O=C(CC1CCCS1(=O)=O)NC1CC2(C1)CC(c1nc3cc(Cl)ccc3o1)C2` (stereo not drawn) [Example 47, N-[6-(5-chloro-1,3-benzoxazol-2-yl)spiro[3.3]heptan-2-yl]-2-(1,1-dioxothiolan-2-yl)acetamide], the IC50 was 2.1 µM in data set [1] and 3.46 µM in data set [3]. Besides, the CC50 at 144 h in data set [2] was greater than 100 µM.
The matching figures for `[H][C@@]1(C(=O)N[C@]2([H])C[C@@]3(C2)C[C@@]([H])(c2nc4cc(Cl)ccc4o2)C3)CC(=O)N(C)C1` (single isomer, unassigned) [Example 94c]: 0.61 µM, 1.24 µM and greater than 100 µM.
`CC(C)N(C)c1cc(C(=O)NC2CC3(C2)CC(c2nc4cc(Cl)ccc4o2)C3)ccn1` (stereo not drawn) [Example 12, N-[6-(5-chloro-1,3-benzoxazol-2-yl)spiro[3.3]heptan-2-yl]-2-[isopropyl(methyl)amino]pyridine-4-carboxamide]: the half-inhibitory concentration (IC50) in data set [1] was 1.55 µM; in data set [3], 2.03 µM. Moreover, the CC50 at 144 h in data set [2] is greater than 10 µM.
The matching figures for `CS(=O)(=O)c1cc(C(=O)NC2CC3(C2)CC(c2nc4cc(Cl)ccc4o2)C3)c(Cl)cn1` (stereo not drawn) [Example 90, 5-Chloro-N-[6-(5-chloro-1,3-benzoxazol-2-yl)spiro[3.3]heptan-2-yl]-2-methylsulfonyl-pyridine-4-carboxamide]: 2.26 µM, 2.99 µM and greater than 10 µM.
The matching figures for `CS(=O)(=O)N1CCC(C(=O)NC2CC3(C2)CC(c2nc4cc(Cl)ccc4o2)C3)C1` (stereo not drawn) [Example 69, N-[6-(5-chloro-1,3-benzoxazol-2-yl)spiro[3.3]heptan-2-yl]-1-methylsulfonyl-pyrrolidine-3-carboxamide]: 1.31 µM, 1.79 µM and greater than 100 µM.
Consider `O=C(NC1CC2(C1)CC(c1nc3cc(Cl)ccc3o1)C2)C1CC(=O)N(c2ccccc2)C1` (stereo not drawn) [Example 32, N-[6-(5-chloro-1,3-benzoxazol-2-yl)spiro[3.3]heptan-2-yl]-5-oxo-1-phenyl-pyrrolidine-3-carboxamide], for which the half-maximal inhibitory concentration (IC50) in data set [1] is 5.44 µM; in data set [3] it was 8.27 µM. The same molecule gave a CC50 at 144 h in data set [2] greater than 100 µM.
On to `O=C(NC1CC2(C1)CC(c1nc3cc(Cl)ccc3o1)C2)c1ccnc(N2CCS(=O)(=O)CC2)c1` (stereo not drawn) [Example 91, N-[6-(5-chloro-1,3-benzoxazol-2-yl)spiro[3.3]heptan-2-yl]-2-(1,1-dioxo-1,4-thiazinan-4-yl)pyridine-4-carboxamide], for which the IC50 is 0.95 µM in data set [1] and 1.1 µM in data set [3]. Moreover, the CC50 at 144 h in data set [2] is greater than 10 µM.
With `NS(=O)(=O)CCC(=O)NC1CC2(C1)CC(c1nc3cc(Cl)ccc3o1)C2` (stereo not drawn) [Example 38, N-[6-(5-chloro-1,3-benzoxazol-2-yl)spiro[3.3]heptan-2-yl]-3-sulfamoyl-propanamide], the IC50 amounted to 5.49 µM in data set [1] and 9.48 µM in data set [3]. Moreover, the CC50 at 144 h in data set [2] was greater than 10 µM.
Regarding `O=C(NC1CC2(C1)CC(c1nc3cc(Cl)ccc3o1)C2)C1CC2(C1)CS(=O)(=O)C2` (stereo not drawn) [Example 52, N-[6-(5-chloro-1,3-benzoxazol-2-yl)spiro[3.3]heptan-2-yl]-2,2-dioxo-2-thiaspiro[3.3]heptane-6-carboxamide], the half-inhibitory concentration (IC50) turned out to be 5.71 µM in data set [1] and 9.99 µM in data set [3]. Further, the CC50 at 144 h in data set [2] is greater than 100 µM.
Taken in the same sequence, the figures for `CNc1cc(C(=O)NC2CC3(C2)CC(c2nc4cc(Cl)ccc4o2)C3)ccn1` (stereo not drawn) [Example 97, N-[6-(5-chloro-1,3-benzoxazol-2-yl)spiro[3.3]heptan-2-yl]-2-(methylamino)pyridine-4-carboxamide] were 5.97 µM, 7.05 µM and greater than 10 µM.
For the molecule `CCS(=O)(=O)N1CCC(C(=O)NC2CC3(C2)CC(c2nc4cc(Cl)ccc4o2)C3)C1` (stereo not drawn) [Example 70, N-[6-(5-chloro-1,3-benzoxazol-2-yl)spiro[3.3]heptan-2-yl]-1-ethylsulfonyl-pyrrolidine-3-carboxamide], the 50% inhibitory concentration (IC50) in data set [1] stood at 3.62 µM; in data set [3], 5.42 µM. The same molecule came in with a CC50 at 144 h in data set [2] greater than 10 µM.
